In patent publication US20080200405A1, “Drug Resistance Reversal In Neoplastic Disease” (priority 2007, published 2008):
Where two headings read alike, the source gives them in different places.

Experiments:
TNFα = assay: Measurement of LPS Induced-TNFα in THP-1 Cells; assay type: cell-based, human; conditions: Homo sapiens, THP-1
[1] = system: Doxorubicin resistant SaOS2 cells; assay: Cancer cell viability (MTT) in the presence or absence of doxorubicin; assay type: cell-based, human; conditions: compound 50 ug/mL, 3 days
Lipid peroxidation = Lipid peroxidation inhibition (method of Ohkawa); assay type: biochemical
[2] = system: bFGF-induced angiogenesis in the CAM model; assay: bFGF (FGF2)-stimulated CAM model; assay type: in vivo, chicken; conditions: bFGF/FGF2 1 ug, 30 ug injected
Description: (§1) In vivo neovascularization was examined by the method previously described by Auerbach et al. (J. Dev. Biol. 41:391-394 (1974)). Ten-day old chicken embryos were purchased from Spafas, Inc. (Preston, Conn.) and were incubated at 37° C. with 55% relative humidity. In the dark, with the aid of a candling lamp, a small hole was punctured in the shell concealing the air sac with a hypodermic needle. A second hole was punctured in the shell on the broadside of the egg directly over an […] portion of the embryonic membrane, as observed during candling. An artificial air sac was created beneath the second hole by applying gentle vacuum to the first hole using a small rubber squeeze bulb. The vacuum caused the chorioallantoic membrane (CAM) to separate from the shell.
For inducing angiogenesis, sterile filter disks were saturated with bFGF (1 μg/ml) (Life Technologies, Gaithersburg, Md.) or other pro-angiogenesis factors and control disks were saturated with PBS without Calcium and Magnesium. Control disks were saturated with PBS without Calcium and Magnesium.
After 24-48 hr, 10-25 ul of test agent was injected intravenously or added topically into the CAM membrane. Eight-Ten eggs/treatment group were used.
(§2) The number of vessel branch points contained in a circular region equal to the area of a filter disk was counted for each section. Percent inhibition data are expressed as the quotient of the experimental value minus the negative control value divided by the difference between the positive control value and the negative control value. One image was counted in each CAM preparation, and findings from eight CAM preparations were analyzed for each treatment condition. In addition, each experiment was performed three times. The resulting angiogenesis index is the mean ±SEM (Standard Error of Measurement) of new branch points in each set of treatment. Statistical analysis of blood vessel branching patterns are performed by 1-way analysis of variance (ANOVA) comparing experimental with corresponding control groups. Statistical significance differences are assessed at P value of <0.05.
The CAM model protocol was modified to include stimulus with bFGF. The effect of injected OT 551 was assayed.
TP-H was applied to the CAM model study to determine its respective anti-angiogenesis effects according to the materials and methods provided in Example 1. Basic Fibroblast Growth Factor (bFGF) was used to induce angiogenesis in the CAM model.
Compounds were introduced via injection to the CAM model study to determine its respective anti-angiogenesis effects according to the materials and methods provided in Example 1. bFGF was used to induce angiogenesis in the CAM model.

[3] = system: doxorubicin-sensitive and doxorubicin-resistant cells (osteosarcoma, breast cancer, neuroblastoma); assay: Evaluation of chemoresistance, Compound 4 alone or combined with doxorubicin; assay type: cell-based, human
Description: A method for evaluating a compound's propensity to overcome cancer cell chemoresistance is described in “Caspase Inhibition Switches Doxorubicin-Induced Apoptosis To Senescence”, Abdelhadi Rebbaa, Xin Zheng, Pauline M Chou and Bernard L Mirkin, Oncogene (2003) 22, 2805-2811. Human neuroblastoma SKN-SH cells (ATCC Cat. No. HTB-11) were cultured in Dulbecco's Modified Eagles Medium (DMEM; Gibco, Grand Island, N.Y.) supplemented with 10% fetal bovine serum (FBS; Sigma-Aldrich, St. Louis, Mo.) at 37° C. in a 95% Air/5% CO2 atmosphere. Resistant human cancer cells to doxorubicin were selected by stepwise exposure to drug concentrations ranging from 10^−9M-10^−6M over 3 months. They were then subjected to treatment with the doxorubicin alone or in combination with hydroxylamine compounds. The cells were incubated with the drugs for 72 hours, and cell viability was measured by the MTT assay. This consists of adding 10 μl/well of MTT (5 mg/ml solution) and incubation for 4 h at 37° C. The precipitate formed is then solubilized by addition of 100 μl of HCL 0.5 N/Isopropanol and incubation for 15 hours at 37° C. The optical density is measured at 570 nm and cell survival is estimated by comparison to untreated cells. Each point represents 4 wells data represent average +/−SE. Additionally, molecular pathways that might be associated with increased chemo-responsiveness with these compounds were investigated.
Cytotoxic activity of doxorubicin and hydroxylamine analogs were quantitatively determined by a colorimetric assay utilizing 3-(4,5-dimethyl-2-thiazolyl) 2,5-diphenyl tetrazolium bromide (MTT; Sigma-Aldrich, St. Louis, Mo.). Briefly, cells were seeded at 10^4 cells/well in 96-well plates and maintained in culture for 24 hours at 37° C. in DMEM supplemented with 10% FBS. […] The optical density of this solution was measured at 570 nm and the percentage of viable cells estimated by comparison with untreated control cells.

[4] = system: Human whole blood clot formation; conditions: for Clot Strength - MA / Time to Clot Initiation R: TEG, human whole blood
Description: TEG: Human whole blood (±drugs) was added to the cylindrical cuvette (“cup”). […] The cup oscillates 4°45′ ( 1/12 radian) in either direction every 4.5 seconds, with a 1-second mid-cycle stationary period, resulting in a frequency of 0.1 Hz and a maximal shear rate of 0.1 per second. The pin was suspended by a torsion wire that acts as a torque transducer. […] The torque experienced by the pin (relative to the oscillation of the cup) was plotted as a function of time (Forsythe, S. A. M. S. K. M. S. (2000): “Comparative In Vitro Efficacy of Different Platelet Glycoprotein IIb/IIIa Antagonists on Platelet-Mediated Clot Strength Induced by Tissue Factor With Use of Thromboelastography.” Arteriosclerosis, Thrombosis, and Vascular Biology 20: 1162).
(Data represent mean ±SD, n=6 (blood form normal healthy volunteers), *P<0.01 as compared to control)

[5] = system: H2O2-induced angiogenesis in the CAM model; assay: H2O2-induced angiogenesis in the CAM model; assay type: in vivo, chicken; conditions: for Branch pts ± SEM: H2O2 88 μM, 30 ng
Description: as §1
A pro-angiogenic agent was added to induce new blood vessel branches on the CAM of 10-day old embryos. Filter disks of #1 filter paper (Whatman International, United Kingdom) were punched using a small puncher and were soaked in 3 mg/mL cortisone acetate (Sigma, St. Louis, Mo.) in a solution (95% ethanol and water). The disks were subsequently air dried under sterile conditions. The disks were then suspended in PBS (Phosphate Buffered Saline) and placed on growing CAMs. Filters treated with TP-H (TEMPOL-H) or TEMPOL and/or H2O2 or TP-H and/or bFGF or VEGF were placed on the first day of the 3-day incubation.
as §2
TP-H (TEMPOL-H, the hydroxylamine reduced form of the nitroxide 4-hydroxy-2,2,6,6-tetramethylpiperidin-1-yloxy) or TEMPOL (4-hydroxy-2,2,6,6-tetramethylpiperidine-N-oxyl radical) was applied to the CAM model study to determine its respective anti-angiogenesis effects according to the materials and methods provided in Example 1. H2O2 was used to induce angiogensis in the CAM model.

mouse V79 cells = conditions: cited from earlier work
lens endothelial cells = conditions: in vitro; cited from earlier work
[6] = system: selenite induced cataract; assay: Selenite induced cataract in mice; conditions: mouse, in vivo
Excerpt: In addition, as mentioned above, there is no precedent for the prevention of growth factor-induced angiogenesis by either TEMPOL or hydroxylamines.

[7] = Bevacizumab 1 ng/cup + Comp. 4 1 uM
[8] = Bevacizumab 1 ng/cup + Comp. 4 10 uM
[9] = Ranibizumab 1 ng/cup + Comp. 4 1 uM
[10] = Ranibizumab 1 ng/cup + Comp. 4 10 uM

In the case of `CC1(C)CC(Oc2nsnc2N2CCOCC2)CC(C)(C)N1O.Cl` [Compound 4, 4-(4-(2,2,6,6-tetramethylpiperidin-1-hydroxyl-4-yloxy)-1,2,5-thiazol-3-yl)morpholine hydrogen chloride], the inhibition at 10 µM (TNFα; compound 10 uM, 5 ng/mL LPS, read-out: Mean Percent Inhibition of TNF-alpha using 5 ng/mL LPS) is reported as 61 ± 10%, the IC50 (TNFα; read-out: TNFalpha IC50) is reported as 6.7 µM and the “Mean OD (×10^−3), MTT viability” value ([1]; Dox. 10^−6 M (+)) is reported as 88.00 ×10^−3. For the same molecule, the “Mean OD (×10^−3), MTT viability” value ([1]; absence of Dox. (−)) was 468.50 ×10^−3, the “% Lipid Peroxidation inhibition (at 1 uM)” value (Lipid peroxidation; 1 uM) was 87.0% and the “Lipid Peroxidation Inhibition, % Inhibition” value (Lipid peroxidation; 10 uM) was 91.4%. The inhibition in vivo at 0.03 mg ([2]; Gallus gallus, read-out: % Inhibition ± SEM) was 92.8 ± 16.5%, the “Branch pts ± SEM” value [2] was 72.3 ± 12.2 and the “underlying mechanism (cell cycle arrest, apoptosis markers)” value [3] was “increased expression of p21/WAF1 and caspase-3 activation”. For the same molecule, the “reversal of drug resistance” value ([3]; combined with doxorubicin, osteosarcoma, breast cancer, neuroblastoma) was “strong ability to reverse drug resistance”, the “killing of cells, compound alone” value ([3]; doxorubicin-sensitive and doxorubicin-resistant cells) was “enhanced the killing of both doxorubicin-sensitive (P<0.001) and doxorubicin-resistant cells” and the “Clot Strength - MA” value [4, 7] was 9.6 ± 2.3 mm. The “Time to Clot Initiation R” value [4, 7] was 14.3 ± 2.2 min, the “Clot Strength - MA” value [4, 8] was 5.0 ± 1.2 mm and the “Time to Clot Initiation R” value [4, 8] was 21.3 ± 4.2 min. The “Clot Strength - MA” value [4, 9] was 6.7 ± 1.5 mm, the “Time to Clot Initiation R” value [4, 9] was 16.8 ± 1.7 min and the “Clot Strength - MA” value [4, 10] was 2.7 ± 0.7 mm. For the same molecule, the “Time to Clot Initiation R” value [4, 10] was 23.3 ± 2.3 min and the “effect on clot formation with Bevacizumab/Ranibizumab” value ([4]; compound 4 at 1 ug and 10 ug) was “delayed the clot formation”.
With `CC1(C)CC(O)CC(C)(C)N1[O]` [TEMPOL, 4-hydroxy-2,2,6,6-tetramethylpiperidine-N-oxyl radical, reference compound] the “Branch pts ± SEM” value ([5]; 100 μg) was 152.2 ± 18.8, the “Branch pts ± SEM” value ([5]; 200 μg) was 151.8 ± 12.5 and the “Branch pts ± SEM” value ([5]; 400 μg) was 150.0 ± 7.7. The “Branch pts ± SEM” value ([5]; 800 μg) was 122.8 ± 3.0, the “inhibition of angiogenesis induced by super-maximal concentrations of H2O2” value ([5]; in vivo) was “effectively inhibited” and the “radioprotection of mouse V79 cells” value (mouse V79 cells) was “concentration dependent”. The “prevention of X-ray radiation damage to lens endothelial cells” value (lens endothelial cells) was “prevented X-ray radiation damage” and the “prevention of selenite induced cataract” value [6] was “not effective”.
